biological target: T1, human α7 receptor (Homo sapiens, UniProt P36544); test: α7 NNR flux assay (FDSS Ca assay, Calcium-4 dye, positive allosteric modulation of acetylcholine response); type: cell-based; conditions: human α7 receptor stably expressed in rat GH4C1 cell line; acetylcholine 20 μM (~EC100); % modulation relative to reference PNU-120596 set to 100%
T1 construct: host or cells: rat GH4C1 cell line
Procedure: The nicotinic acetylcholine receptor α7 is a calcium-permeable ion channel, whose activity can be measured by over expression in mammalian cells or oocytes in this version of the assay, the human α7 receptor is stably expressed in the rat GH4C1 cell line. The assay was used to identify positive allosteric modulators (PAMs) of the α7 receptor. Activation of the channel was measured by loading cells with the calcium-sensitive fluorescent dye Calcium-4 (Assay kit from Molecular Devices), and then measuring real-time changes in fluorescence upon treatment with test compounds.
The cell line ChanClone GH4C1-nAChRalpha7 from Genionics was seeded from frozen stock in 384-well plates in culture media 2-3 days before experiment to form an approximately 80% confluent layer on the day of experiment.
Two or three days before the experiment the cells were seeded in 384 well plates from Greiner bio-one (781946, CELLCOAT, Poly-D-Lysine, black, μClear).
The cells were seeded in 384 well plates with 30 μL/well (30000 cells/well) while stirring the cell suspension or otherwise preventing the cells from precipitating.
The loading buffer was 5% v/v Calcium-4 Kit and 2.5 mM Probenecid in assay buffer.
Culture media were removed from the cell plates and 20 μL loading buffer was added in each well. The cell plates were placed in trays and incubated 90 minutes in the incubator (37° C.). Thereafter the plates were incubated 30 minutes at room temperature, still protected from light.
The assay buffer was HBSS with 20 mM HEPES, pH 7.4 and 3 mM CaCl2.
200 nL 10 mM compound solution in DMSO was diluted in 50 μL assay buffer. The final test concentrations in the cell plates were 20-10-5-2.5-1:25-0.625-0.312-0.156-0.078-0.039 μM. Assay buffer and 3 μM PNU-120596 were used for control.
The agonist acetylcholine was added to a final concentration of 20 μM (˜EC100).
In the FDSS7000 the Ex480-Em540 was measured with 1 second intervals. The baseline was made of 5 frames before addition of test compounds, and 95 frames more were made before addition of acetylcholine. The measurement stopped 30 frames after the 2nd addition. Raw data for each well were collected as “the maximum fluorescence count” in the interval 100-131 seconds and as “the average fluorescence count” in the interval 96-100 seconds. The positive allosteric modulation in the 2nd addition was the enhancement of agonist response with test compound compared to agonist alone.
Results were calculated as % modulation of test compound compared to the reference PNU-120596 set to 100%.

T1 sequence (P36544 23-502): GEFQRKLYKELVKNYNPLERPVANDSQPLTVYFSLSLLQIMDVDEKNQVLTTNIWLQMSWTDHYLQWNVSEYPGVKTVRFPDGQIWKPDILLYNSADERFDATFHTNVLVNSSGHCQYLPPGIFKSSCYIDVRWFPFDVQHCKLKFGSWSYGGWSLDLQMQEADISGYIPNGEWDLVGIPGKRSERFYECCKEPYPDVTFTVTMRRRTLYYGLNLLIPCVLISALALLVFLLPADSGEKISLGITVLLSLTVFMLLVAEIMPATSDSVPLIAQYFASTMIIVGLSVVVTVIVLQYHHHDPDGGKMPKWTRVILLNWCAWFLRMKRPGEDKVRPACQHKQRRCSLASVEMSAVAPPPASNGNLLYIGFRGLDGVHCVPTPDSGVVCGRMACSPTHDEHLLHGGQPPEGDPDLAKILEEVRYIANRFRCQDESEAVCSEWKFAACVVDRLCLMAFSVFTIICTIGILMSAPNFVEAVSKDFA

Structure (SMILES)	EC50
C[C@H](NC(=O)[C@H]1C[C@@H]1c1ccccc1)c1ccc(OCC#N)nc1 [Compound 20, (1S,2S)-2-Phenyl-cyclopropane carboxylic acid [(S)-1-(6-cyanomethoxy-pyridin-3-yl)-ethyl]-amide]	2 µM
C[C@H](NC(=O)[C@H]1C[C@@H]1c1ccccc1)c1cnc2c(c1)OCCO2 [Compound 16, (1S,2S)-2-Phenyl-cyclopropanecarboxylic acid [(S)-1-(2,3-dihydro-[1,4]dioxino[2,3-b]pyridin-7-yl)-ethyl]-amide]	6.8 µM
C[C@H](NC(=O)[C@H]1C[C@@H]1c1ccccc1)c1ccc(O[C@H]2CCOC2)nc1 [Compound 13, (1S,2S)-2-Phenyl-cyclopropanecarboxylic acid [(S)-1-{6-[(S)-(tetrahydro-furan-3-yl)oxy]-pyridin-3-yl]-ethyl}-amide]	1.6 µM
O=C(N[C@@H](CO)c1ccc(O[C@H]2CCOC2)nc1)[C@H]1C[C@@H]1c1ccccc1 [Compound 44, (1S,2S)—N-[(1R)-2-hydroxy-1-[6-[(3S)-tetrahydrofuran-3-yl]oxy-3-pyridyl]ethyl]-2-phenyl-cyclopropanecarboxamide]	4.6 µM
C[C@H](NC(=O)[C@H]1C[C@@H]1c1ccccc1)c1ccc(OCC(F)(F)F)nc1 [Compound 10, (1S,2S)-2-Phenyl-cyclopropanecarboxylic acid {(S)-1-[6-(2,2,2-trifluoro-ethoxy)-pyridin-3-yl]-ethyl}-amide]	1.9 µM
C[C@H](NC(=O)[C@H]1C[C@@H]1c1ccccc1)c1ccc(C(F)(F)F)nc1 [Compound 6, (1S,2S)-2-Phenyl-cyclopropanecarboxylic acid [(S)-1-(6-trifluoromethyl-pyridin-3-yl)-ethyl]-amide]	5.2 µM
COC[C@H](NC(=O)[C@H]1C[C@@H]1c1ccccc1)c1ccc(OC2CCOCC2)nc1 [Compound 49, (1S,2S)-2-Phenyl-cyclopropanecarboxylic acid {(R)-2-methoxy-1-[6-(tetrahydro-pyran-4-yloxy)-pyridin-3-yl]-ethyl}-amide]	1.2 µM
CC(C)Oc1ccc([C@H](C)NC(=O)[C@H]2C[C@@H]2c2ccccc2)cn1 [Compound 1, (1S,2S)-2-Phenyl-cyclopropanecarboxylic acid [(S)-1-(6-isopropoxy-pyridin-3-yl)-ethyl]-amide]	0.67 µM
CCCOc1ccc([C@H](CO)NC(=O)[C@H]2C[C@@H]2c2ccccc2)cn1 [Compound 21, (1S,2S)-2-Phenyl-cyclopropanecarboxylic acid [(R)-2-hydroxy-1-(6-propoxy-pyridin-3-yl)-ethyl]-amide]	0.64 µM
O=C(N[C@@H](CO)c1ccc(C(F)(F)F)nc1)[C@H]1C[C@@H]1c1ccccc1 [Compound 22, (1S,2S)-2-Phenyl-cyclopropanecarboxylic acid [(R)-2-hydroxy-1-(6-trifluoromethyl-pyridin-3-yl)-ethyl]-amide]	5.5 µM
COCc1ccc([C@H](C)NC(=O)[C@H]2C[C@@H]2c2ccccc2)cn1 [Compound 9, (1S,2S)-2-Phenyl-cyclopropanecarboxylic acid [(S)-1-(6-methoxymethyl-pyridin-3-yl)-ethyl]-amide]	6.2 µM
C[C@H](NC(=O)[C@H]1C[C@@H]1c1ccccc1)c1ccc(OC2COC2)nc1 [Compound 19, (1S,2S)-2-Phenyl-cyclopropanecarboxylic acid {(S)-1-[6-(oxetan-3-yloxy)-pyridin-3-yl]-ethyl}-amide]	2.4 µM
COC[C@H](NC(=O)[C@H]1C[C@@H]1c1ccccc1)c1ccc(O[C@H]2CCOC2)nc1 [Compound 48, (1S,2S)—N-[(1R)-2-methoxy-1-[6-[(3S)-tetrahydrofuran-3-yl]oxy-3-pyridyl]ethyl]-2-phenyl-cyclopropanecarboxamide]	1.7 µM
C[C@H](NC(=O)[C@H]1C[C@@H]1c1ccccc1)c1ccc(Cl)nc1 [Compound 18, (1S,2S)-2-Phenyl-cyclopropanecarboxylic acid [(S)-1-(6-chloro-pyridin-3-yl)-ethyl]-amide]	3.7 µM
O=C(N[C@@H](CO)c1ccc(O[C@@H]2CCOC2)nc1)[C@H]1C[C@@H]1c1ccccc1 [Compound 43, (1S,2S)-2-Phenyl-cyclopropanecarboxylic acid ((R)-2-hydroxy-1-{6-[(R)-(tetrahydro-furan-3-yl)oxy]-pyridin-3-yl}-ethyl)-amide]	2.9 µM
CCOc1ccc([C@H](CO)NC(=O)[C@H]2C[C@@H]2c2ccc(F)cc2)cn1 [Compound 28, (1S,2S)-2-(4-Fluoro-phenyl)-cyclopropanecarboxylic acid [(R)-1-(6-ethoxy-pyridin-3-yl)-2-hydroxy-ethyl]-amide]	0.62 µM
[2H]C([2H])([2H])COc1ccc([C@H](CO)NC(=O)[C@H]2C[C@@H]2c2ccc(F)cc2)cn1 [Compound 35, (1S,2S)-2-(4-Fluoro-phenyl)-cyclopropanecarboxylic acid [(R)-1-(6-(2,2,2-d3)-ethoxy-pyridin-3-yl)-2-hydroxy-ethyl]-amide]	0.71 µM
C[C@H](NC(=O)[C@H]1C[C@@H]1c1ccccc1)c1cnc2c(c1)OCO2 [Compound 15, (1S,2S)-2-Phenyl-cyclopropanecarboxylic acid ((S)-1-[1,3]dioxolo[4,5-b]pyridin-6-yl-ethyl)-amide]	5.6 µM
C[C@H](NC(=O)[C@H]1C[C@@H]1c1ccccc1)c1ccc(C#N)nc1 [Compound 5, (1S,2S)-2-Phenyl-cyclopropanecarboxylic acid [(S)-1-(6-cyano-pyridin-3-yl)-ethyl]-amide]	7.7 µM

system: not given; test: not given; conditions: not given

Structure (SMILES)	melting point
C[C@H](NC(=O)[C@H]1C[C@@H]1c1ccccc1)c1ccc(OCC#N)nc1 [Compound 20, (1S,2S)-2-Phenyl-cyclopropane carboxylic acid [(S)-1-(6-cyanomethoxy-pyridin-3-yl)-ethyl]-amide]	163 to 165 °C
C[C@H](NC(=O)[C@H]1C[C@@H]1c1ccccc1)c1ccc(OC2COC2)nc1 [Compound 19, (1S,2S)-2-Phenyl-cyclopropanecarboxylic acid {(S)-1-[6-(oxetan-3-yloxy)-pyridin-3-yl]-ethyl}-amide]	151 to 153 °C

From patent US9889122B2, “Positive allosteric modulators of nicotinic acetylcholine receptor” (H. Lundbeck A/S, priority 2011, dated 2018)
